Values of other authors in US20230381197A1, “COMPOSITIONS FOR NON-SURGICAL PREVENTION OF BOAR TAINT AND […]” (Insigna Inc., priority 2022, published 2023).

Test system: Sertoli cells
Settings: young male pigs

Row | SMILES | duration of Sertoli cell proliferation and testis size
1 | C[C@]12CC[C@@H]3c4ccc(O)cc4C[C@@H](CCCCCCCCC[S+]([O-])CCCC(F)(F)C(F)(F)F)[C@H]3[C@@H]1CC[C@@H]2O (some centres unmarked) [ICI 182,780] | highly significant increase
2 | N#Cc1ccc(C(c2ccc(C#N)cc2)n2cncn2)cc1 [Letrozole] | highly significant increase
